# Laboratory results published in patent publication US20020025918A1, “Methods of using helical peptides in plants” (priority 1987, published 2002).
# Like-named read-outs stand apart in the source and are kept apart here. Residues, ends and D or L forms follow the SMILES beside them.
# Legend:
# Acinetobacter Cal Anit = assay: MIC/MBC, fresh isolates; assay type: cell-based; conditions: fresh isolate Acinetobacter Cal Anit
# Excerpt: (§1) The procedure of example 2 was followed using a variety of freshly isolated bacterial samples.
# Citrobacter Diversus = assay: MIC/MBC, fresh isolates; assay type: cell-based; conditions: fresh isolate Citrobacter Diversus
# Excerpt: as §1
# Citrobacter Freundii = assay: MIC/MBC, fresh isolates; assay type: cell-based; conditions: fresh isolate Citrobacter Freundii
# Excerpt: as §1
# Enterobacteria Cloacae = assay: MIC/MBC, fresh isolates; assay type: cell-based; conditions: fresh isolate Enterobacteria Cloacae
# Excerpt: as §1
# Enterococcus-1 = assay: MIC/MBC, fresh isolates; assay type: cell-based; conditions: fresh isolate Enterococcus-1
# Excerpt: as §1
# Enterococcus-2 = assay: MIC/MBC, fresh isolates; assay type: cell-based; conditions: fresh isolate Enterococcus-2
# Excerpt: as §1
# Enterococcus-3 = assay: MIC/MBC, fresh isolates; assay type: cell-based; conditions: fresh isolate Enterococcus-3
# Excerpt: as §1
# Eschera Coli = assay: MIC/MBC, fresh isolates; assay type: cell-based; conditions: fresh isolate Eschera Coli
# Excerpt: as §1
# Klebsiella pheumoniae-2 = assay: MIC/MBC, fresh isolates; assay type: cell-based; conditions: fresh isolate Klebsiella pheumoniae-2
# Excerpt: as §1
# Klebsiella pheumoniae = assay: MIC/MBC, fresh isolates; assay type: cell-based; conditions: fresh isolate Klebsiella pheumoniae
# Excerpt: as §1
# Morganella morganil = assay: MIC/MBC, fresh isolates; assay type: cell-based; conditions: fresh isolate Morganella morganil
# Excerpt: as §1
# Pseudomonas aeruginosa-1 = assay: MIC/MBC, fresh isolates; assay type: cell-based; conditions: fresh isolate Pseudomonas aeruginosa-1
# Excerpt: as §1
# Pseudomonas aeruginosa-2 = assay: MIC/MBC, fresh isolates; assay type: cell-based; conditions: fresh isolate Pseudomonas aeruginosa-2
# Excerpt: as §1
# Pseudomonas aeruginosa-3 = assay: MIC/MBC, fresh isolates; assay type: cell-based; conditions: fresh isolate Pseudomonas aeruginosa-3
# Excerpt: as §1
# Serratia Marcescens = assay: MIC/MBC, fresh isolates; assay type: cell-based; conditions: fresh isolate Serratia Marcescens
# Excerpt: as §1
# Staph Coag neg = assay: MIC/MBC, fresh isolates; assay type: cell-based; conditions: fresh isolate Staph Coag neg
# Excerpt: as §1
# Staph auerus-MR-1 = assay: MIC/MBC, fresh isolates; assay type: cell-based; conditions: fresh isolate Staph auerus-MR-1
# Excerpt: as §1
# Staph aureus-MR-2 = assay: MIC/MBC, fresh isolates; assay type: cell-based; conditions: fresh isolate Staph aureus-MR-2
# Excerpt: as §1
# Staph aureus = assay: MIC/MBC, fresh isolates; assay type: cell-based; conditions: fresh isolate Staph aureus
# Excerpt: as §1
# [1] = tested on: Human mononuclear leukocytes; assay: 3H-thymidine uptake in WBC (proliferation); assay type: cell-based
# Protocol: Human mononuclear leukocytes were isolated from whole blood in the following manner. Blood was collected in vacutainer tubes containing EDTA, and was then diluted with an equal valume of calcium and magnesium-free PBS and layered over Histopaque resin (GIBCO). The tubes were centrifuged for 30 minutes at 25° C. and 450× g. The plasma and platelets above the banded layer of cells in the resulting gradient were removed and discarded. The banded white blood cells were removed to fresh test tubes, washed 3 times with PBS, and resuspended in RPMI medium containing 10% fetal bovine serum (FBS), mercaptoethanol, and penicillin and streptomycin as antibiotics. The cells were then counted and resuspended to a final concentration of 3×10^6 cells/ml.
# To each well of a 96 well flat-bottomed microtiter plate was aded 100 μl of cells (3×10^5 cells). Treatment groups were set in quadruplicate samples. The appropriate concentration of test peptide and/or the mitogen hytohemaglutinate (PHA), was added in a total volume of 100 μl of medium to the test wells. The plates were then incubated at 37° C. and 5% CO2 for a duration of 72 hours. At the end of the incubation period, 1 μCi of 3H-thymidine in 1 μl TRIS-HCI, PH8 was added to each well, and the plates incubated an additional 18 hours.
# Cellular DNA was harvested onto glass fiber filters using a semi-automatic cell harvester. The glass filters were then placed into vials containing scintillation fluid, and the samples were counted in a scintillation counter. The uptake of 3H-thymidine is an indiator of cell proliferation, thus the higher the number of counts in the sample, the greater the proliferative activity of the cells. The results in Table XI indicate that low dose of the synthetic peptides of this invention stimulate cell growth.
# E. coli = assay: MBC and MIC susceptibility test; assay type: cell-based
# P. aeruginosa = assay: MBC and MIC susceptibility test; assay type: cell-based
# S. aureus = assay: MBC and MIC susceptibility test; assay type: cell-based
# [2] = Survival of non-infected catfish fingerlings injected with peptide; assay type: in vivo; conditions: 200 μg i.p. once per day for 4 days
# Protocol: […] Treatment groups of the fish were then injected intraperitoneally (i.p.) with the lytic peptide LSB-37 dissolved in saline, or a saline control once per day for a period of 4 days.
# B-16 myeloma cells = assay: B-16 cell viability, trypan blue exclusion; assay type: cell-based; conditions: 100 μM peptide, one hour
# Protocol: (§2) B-16 myeloma cells and normal 3T3 […] fibroblasts were either permitted to attach to the test plate, or treated with trypsin to free the cells from the plastic dish prior to treatment. Cells were then treated with 100 μM lytic peptide for one hour as described above, and cell viability was then determined by trypan blue exclusion.
# [3] = 3T3 fibroblast viability, trypan blue exclusion; assay type: cell-based; conditions: human, 100 μM peptide, one hour, read-out: % Cell Viability
# Protocol: as §2
# [4] = Role of cytoskeletal structure in susceptibility to lysis, FDD cell viability; conditions: donkey, primary fetal donkey dermal cells (FDD), % Viability of Treated DD Cells, 100 μM peptide 15 minutes
smiles,measurement,setting,value
CC(C)C[C@H](NC(=O)[C@H](CCCCN)NC(=O)[C@H](CCCCN)NC(=O)[C@H](C)NC(=O)[C@H](CC(C)C)NC(=O)[C@H](CCCCN)NC(=O)[C@H](C)NC(=O)[C@H](CC(C)C)NC(=O)[C@H](CCCCN)NC(=O)[C@H](CCCCN)NC(=O)[C@H](C)NC(=O)[C@H](CC(C)C)NC(=O)[C@H](CCCCN)NC(=O)[C@H](CCCCN)NC(=O)[C@H](CC(C)C)NC(=O)[C@H](CCCCN)NC(=O)[C@H](CCCCN)NC(=O)[C@H](C)NC(=O)[C@H](CC(C)C)NC(=O)[C@H](CCCCN)NC(=O)[C@H](CCCCN)NC(=O)[C@H](C)NC(=O)[C@@H](N)Cc1ccccc1)C(N)=O [Anubis-2] (H-FAKKLAKKLKKLAKKLAKLAKKL-NH2),MBC,Acinetobacter Cal Anit,3.2 µM
same,MIC,Acinetobacter Cal Anit,3.2 µM
same,MBC,Citrobacter Diversus,6.4 µM
same,MIC,Citrobacter Diversus,3.2 µM
same,MBC,Citrobacter Freundii,6.4 µM
same,MIC,Citrobacter Freundii,3.2 µM
same,MBC,Enterobacteria Cloacae,12.8 µM
same,MIC,Enterobacteria Cloacae,6.4 µM
same,MBC,Enterococcus-1,3.2 µM
same,MIC,Enterococcus-1,1.6 µM
same,MIC,Enterococcus-2,51.2 µM
same,MIC,Enterococcus-3,51.2 µM
same,MBC,Eschera Coli,12.8 µM
same,MIC,Eschera Coli,6.4 µM
same,MBC,Klebsiella pheumoniae-2,25.6 µM
same,MIC,Klebsiella pheumoniae-2,6.4 µM
same,MBC,Klebsiella pheumoniae,6.4 µM
same,MIC,Klebsiella pheumoniae,3.2 µM
same,MIC,Morganella morganil,51.2 µM
same,MBC,Pseudomonas aeruginosa-1,25.6 µM
same,MIC,Pseudomonas aeruginosa-1,6.4 µM
same,MBC,Pseudomonas aeruginosa-2,6.4 µM
same,MIC,Pseudomonas aeruginosa-2,3.2 µM
same,MBC,Pseudomonas aeruginosa-3,51.2 µM
same,MIC,Pseudomonas aeruginosa-3,6.4 µM
same,MIC,Serratia Marcescens,51.2 µM
same,MBC,Staph Coag neg,3.2 µM
same,MIC,Staph Coag neg,1.6 µM
same,MIC,Staph auerus-MR-1,51.2 µM
same,MBC,Staph aureus-MR-2,25.6 µM
same,MIC,Staph aureus-MR-2,12.8 µM
same,MBC,Staph aureus,51.2 µM
same,MIC,Staph aureus,6.4 µM
same,"3H-Thymidine Uptake in WBC, % of Control","[1]; peptide 10 μM, PHA 0 mg",149%
same,"3H-Thymidine Uptake in WBC, % of Control","[1]; peptide 10 μM, PHA 0.5 mg",290%
same,"3H-Thymidine Uptake in WBC, % of Control","[1]; peptide 10 μM, PHA 5.0 mg",120%
same,"3H-Thymidine Uptake in WBC, % of Control","[1]; peptide 25 μM, PHA 0 mg",46%
same,"3H-Thymidine Uptake in WBC, % of Control","[1]; peptide 25 μM, PHA 0.5 mg",393%
same,"3H-Thymidine Uptake in WBC, % of Control","[1]; peptide 25 μM, PHA 5.0 mg",108%
same,"3H-Thymidine Uptake in WBC, % of Control","[1]; peptide 50 μM, PHA 0 mg",19%
same,"3H-Thymidine Uptake in WBC, % of Control","[1]; peptide 50 μM, PHA 0.5 mg",4%
same,"3H-Thymidine Uptake in WBC, % of Control","[1]; peptide 50 μM, PHA 5.0 mg",1%
same,"3H-Thymidine Uptake in WBC, % of Control","[1]; peptide 100 μM, PHA 0 mg",26%
same,"3H-Thymidine Uptake in WBC, % of Control","[1]; peptide 100 μM, PHA 0.5 mg",5%
same,"3H-Thymidine Uptake in WBC, % of Control","[1]; peptide 100 μM, PHA 5.0 mg",0%
CC[C@H](C)[C@H](NC(=O)CNC(=O)[C@H](CC(N)=O)NC(=O)[C@H](CCCNC(=N)N)NC(=O)[C@@H](NC(=O)[C@H](CC(N)=O)NC(=O)[C@H](CCCNC(=N)N)NC(=O)CNC(=O)[C@@H](NC(=O)[C@H](CCCCN)NC(=O)[C@H](CCC(=O)O)NC(=O)[C@@H](NC(=O)[C@H](CCCCN)NC(=O)[C@H](CCCCN)NC(=O)[C@H](Cc1ccccc1)NC(=O)[C@@H](NC(=O)[C@H](CCCCN)NC(=O)[C@H](Cc1c[nH]c2ccccc12)NC(=O)[C@H](CCCCN)NC(=O)[C@@H]1CCCN1C(=O)[C@@H](N)CC(C)C)C(C)C)[C@@H](C)CC)C(C)C)[C@@H](C)CC)C(=O)N[C@H](C(=O)N[C@@H](CCCCN)C(=O)N[C@@H](C)C(=O)NCC(=O)N1CCC[C@H]1C(=O)N[C@@H](C)C(=O)N[C@H](C(=O)N[C@@H](C)C(=O)N[C@H](C(=O)N[C@@H](CC(C)C)C(=O)NCC(=O)N[C@@H](CCC(=O)O)C(=O)N[C@@H](C)C(=O)N[C@@H](CCCCN)C(=O)N[C@@H](C)C(=O)N[C@@H](CC(C)C)C(=O)NCC(N)=O)C(C)C)[C@@H](C)CC)C(C)C [LSB-37] (H-LPKWKVFKKIEKVGRNIRNGIVKAGPAIAVLGEAKALG-NH2),antibacterial result of treatment (Table I; MBC),E. coli,16 µM
same,MBC,E. coli; Table III,2.0 µM
same,antibacterial result of treatment (Table I; MBC),P. aeruginosa; P. aeruginosa (−),8 µM
same,MBC,"P. aeruginosa; Table III, P. aeuriginosa (−)",3.6 µM
same,antibacterial result of treatment (Table I; MBC),S. aureus; S. auerus (+),64 µM
same,MBC,"S. aureus; Table III, S. aureus (+)",64 µM
same,MBC,Acinetobacter Cal Anit,1 µM
same,MIC,Acinetobacter Cal Anit,0.5 µM
same,MBC,Citrobacter Diversus,4 µM
same,MIC,Citrobacter Diversus,1 µM
same,MBC,Citrobacter Freundii,4 µM
same,MIC,Citrobacter Freundii,1 µM
same,MBC,Enterobacteria Cloacae,8 µM
same,MIC,Enterobacteria Cloacae,2 µM
same,MBC,Enterococcus-1,32 µM
same,MIC,Enterococcus-1,8 µM
same,MIC,Enterococcus-2,32 µM
same,MIC,Enterococcus-3,32 µM
same,MBC,Eschera Coli,4 µM
same,MIC,Eschera Coli,1 µM
same,MBC,Klebsiella pheumoniae-2,8 µM
same,MIC,Klebsiella pheumoniae-2,4 µM
same,MBC,Klebsiella pheumoniae,8 µM
same,MIC,Klebsiella pheumoniae,2 µM
same,MIC,Morganella morganil,32 µM
same,MBC,Pseudomonas aeruginosa-1,16 µM
same,MIC,Pseudomonas aeruginosa-1,8 µM
same,MBC,Pseudomonas aeruginosa-2,16 µM
same,MIC,Pseudomonas aeruginosa-2,4 µM
same,MBC,Pseudomonas aeruginosa-3,16 µM
same,MIC,Pseudomonas aeruginosa-3,8 µM
same,MIC,Serratia Marcescens,32 µM
same,MIC,Staph Coag neg,32 µM
same,MIC,Staph aureus,32 µM
same,% Survival,[2],100%
same,% Cell Viability,B-16 myeloma cells; B-16 Monolayer,78%
same,% Cell Viability,B-16 myeloma cells; B-16 Suspension (trypsinized),22%
same,"viability at 1 h, 100 μM","[3]; normal 3T3 human fibroblasts, 3T3 Suspension (trypsinized)",12%
same,"viability at 1 h, 100 μM",[3]; 3T3 Monolayer,94%
same,"viability at 15 minutes, 100 μM",[4]; Cold-treated (4° C.),70%
same,"viability at 15 minutes, 100 μM",[4]; Warm-treated (37° C.),96%
same,"viability at 15 minutes, 100 μM","[4]; with colchicine 0.1 μg/ml (cytoskeletal inhibitor), Colchicine-treated (0.1 μg/ml)",40%
same,"viability at 15 minutes, 100 μM","[4]; with cytochalasin D 5 μg/ml (cytoskeletal inhibitor), Cytochalasin D-treated (5 μg/ml)",32%
